Values joined by “and” are separate entries in the source; they are usually repeats but may differ in a detail not shown here. Equal entries are not always repeated.
Columns and labels:
[1] = test system: naturally aged C57BL6J mice; test: Cataract incidence in naturally aged mice, Example 21-15, Table 30; assay type: in vivo, mouse; details: orally twice a week, 360 mg/kg, until death, untreated aged 83
Description: (§1) 22-month-old female C57BL6J mice (KRIBB Laboratory Animal Resource Center) were acclimated to the experimental environment for one week, after which the aged mice were randomly assigned to experimental and control groups. Eight-week-old, non-aged mice served as controls. LX-403 was mixed in a 10% ethanol solution of PEG400 and administered orally at a concentration of 25 mg/kg daily for 21 days, or administered to the skin, joints, or eyes at a concentration of 1 μM. LX-1801 was mixed in distilled water with 4% DMSO, 30% PEG300, and 5% Tween80 and administered to the skin, joints, or eyes at a concentration of 0.4 μM daily for 21 days. LX-2001 was mixed in PBS and administered to the skin, joints, or eyes at a concentration of […] daily for 21 days. LX-2002 was mixed in distilled water with 4% DMSO, 30% PEG300, and 5% Tween80 and administered to the skin, joints, or eyes at a concentration of 2 μM daily for 21 days. […] LX-2005 was mixed in distilled water with 4% DMSO, 30% PEG300, and 5% Tween80 and administered to the skin, joints, or eyes at a concentration of 90 μM daily for 21 days. LX-2007 was mixed in distilled water with 4% DMSO, 30% PEG300, and 5% Tween80 and administered to the skin, joints, or eyes at a concentration of 90 μM daily for 21 days. […] LX-3002 was mixed in distilled water with 4% DMSO, 30% PEG300, and 5% Tween80 and administered orally at a concentration of 10 mg/kg daily for 21 days. […] LX-5411 was mixed in 5% PBS and administered orally at a concentration of 10 mg/kg daily for 21 days or administered to the skin, joints, or eyes at a concentration of 3 μM. LX-5701 was mixed in PBS and administered orally at a concentration of 360 mg/kg daily for 21 days. LX-6807 was mixed in saline and administered intraperitoneally at a concentration of 1 mg/kg daily for 21 days. LX-2101 or LX-2102 was mixed in PBS solution with 5% DMSO and administered intraperitoneally at a concentration of 20 mg/kg or 10 mg/kg, respectively, daily for 21 days. The control group received only the solution in the same volume. After the end of drug administration, the methods described in each example below were performed.
Cataracts, which occur with age, are a disease that causes visual impairment due to clouding of the lens and are a major cause of blindness. The mice of Example 21-1 were treated with the test compound mixed in PBS orally twice a week at a concentration of 360 mg/kg. Cataract development was assessed biweekly until death.

[2] = test system: HMGN1 secreted from senescent A549 cells; test: HMGN1 secretion (ELISA) from senescent A549 cancer cells, Example 12; assay type: cell-based, human; details: senescent untreated = 100%; 30 μM; 90 μM for LX-305, 905, 1302, 1601, 1603, 2003, 2702, 2901, 3106; 270 μM for LX-1103, 2005, 2007;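 also: A549 cells made senescent by doxorubicin exposure, with DMSO-treated cells serving as the non-senescent control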
Description: Cells were treated with doxorubicin or control (DMSO) and cultured.

[3] = test system: naturally aged C57BL6J mice; assay type: in vivo, mouse; details: after 7 days; 6 mm punch dorsal skin wounds; naturally aged mice; untreated aged 3.2 (±0.4)
[4] = test system: naturally aged C57BL6J mice; test: Hot plate joint pain test in naturally aged mice, Example 21-12, Table 27; assay type: in vivo, mouse; details: hot plate 55° C., untreated aged 6.9 (±1.8)
Description: as §1
RNA was extracted from joint tissue as described in Example 7-2 of WO2023-085787 A1, and qRT-PCR was performed using the synthesized cDNA. […] To analyze joint pain due to joint aging, hotplate analysis was performed. Specifically, thermal pain thresholds were measured using a hot plate. After acclimating mice to a temperature of 30° C. for 10 minutes, the time required for hind paw licking or jumping responses to occur at 55° C. was measured. To prevent tissue damage, the response was measured for less than 30 seconds, and the average value was used from five measurements.

[5] = test system: naturally aged C57BL6J mice; test: Skin aging (dermal thickness, COL1A1 and SDF1 mRNA, hair loss) in naturally aged mice, Example 21-10, Table 25; assay type: in vivo, mouse; details: for Dermal Thickness (μm): mouse, in vivo
Description: as §1
Frozen sections of skin tissue were stained with Hematoxylin/Eosin (H/E), and the dermal thickness was observed under an optical microscope. Furthermore, the mRNA levels of collagen (COL1A1), a skin component, and SDF1, which suppresses age-related pigmentation, were measured using qRT-PCR as described in Example 7-2 of WO2023-085787 A1. […] Furthermore, biweekly examinations were performed to assess the onset of hair loss due to aging.

[6] = test system: NaIO3-induced retinal degenerative C57BL6J mice; test: NaIO3 retinal degeneration in mice (p16 mRNA, outer nuclear layer thickness), Example 29, Table 53; assay type: in vivo, mouse; details: daily for 21 days; for Outer nuclear layer thickness: untreated 27.4 (±1.3); for p16 mRNA: untreated 100%
Description: Then, retinal degenerative diseases were induced for more than 7 days by intravenous administration of 20 mg/kg of NaIO3, an oxidizing agent that induces retinal pigment epithelial cell death and retinal degeneration. Mice with retinal degenerative diseases were randomly assigned to experimental and control groups. […] The control group received only the solution in the same volume. […] In addition, frozen sections of the other eye tissue were stained with H/E (Hematoxylin/Eosin), and the thickness of the outer nuclear layer (ORL) was observed under an optical microscope. […] The mRNA amount after aging induction was calculated as 100% and compared with the mRNA amount of p16 after treatment with the test compound.

[7] = test system: senescent foreskin cells; test: Survival of senescent human cells treated with supernatant (secreted fluid) from death-induced cells, Example 13; assay type: cell-based; details: Table 8; supernatant from dying senescent cells treated at 30, 90 or 270 μM (as Example 11); senescent treated cells
[8] = naturally aged mice, untreated aged = 100
[9] = skin, naturally aged mice, untreated aged = 1

Row | Compound | Cataract incidence (%) [1] [%] | HMGN1 [2] [%] | Wound size (mm) [3] | Response time (s) [4] | Dermal Thickness (μm) [5] | Relative area of hair loss (%) [5, 8] | Col1a1 mRNA (Fold) [5, 9] | SDF1 mRNA (fold) [5, 9] | Outer nuclear layer thickness [6] | p16 mRNA [6] | Survival [7] | Col1a1 mRNA (Fold) ([5]; topical) | Relative area of hair loss (%) ([5]; topical) | SDF1 mRNA (fold) ([5]; topical)
1 | C=C(C)[C@@H]1CC[C@]2(C(=O)O)CC[C@]3(C)[C@H](CC[C@@H]4[C@@]5(C)CC[C@H](O)C(C)(C)[C@@H]5CC[C@]43C)[C@@H]12 [LX-2005, Betulinic acid] | 72 | 252 | 2.9 (±0.3) mm | 4.9 (±1.2) s | 227 (±28.4) μm | 80 (±4.9) % | 1.7 (±0.2) Fold | 1.9 (±0.2) fold | 30.9 (±3.8) μm | 71 (±4.9) % | 91.6 | – | – | –
2 | CC1(C)C=C2[C@H]3CC[C@@H]4[C@@]5(C)CCC(=O)C(C)(C)[C@@H]5CC[C@@]4(C)[C@]3(C)CC[C@@]2(C(=O)O)CC1 [LX-2007, Moronic acid] | 80 | 192 | 3.0 (±0.2) mm | 5.8 (±0.5) s | 219 (±31.1) μm | 86 (±5.5) % | 1.6 (±0.3) Fold | 1.3 (±0.2) fold | 29.4 (±7.5) μm | 75 (±5.9) % | 95.7 | – | – | –
3 | CC1(C)CC[C@]2(NC(=O)C(C)(F)F)CC[C@]3(C)[C@H](C(=O)C=C4[C@@]5(C)C=C(C#N)C(=O)C(C)(C)[C@@H]5CC[C@]43C)[C@@H]2C1 [LX-2101, Omaveloxolone] | 77 | 297 | 1.9 (±0.3) mm | 5.1 (±0.4) s | 224 (±11.1) μm and 251 (±15.1) μm | 82 (±8.9) % | 2.5 (±0.2) Fold | 1.4 (±0.3) fold | 29.4 (±7.5) μm and 39 (±4.1) μm | 80 (±2.7) % and 67 (±7.0) % | 39.7 | 2.2 (±0.2) Fold | 79 (±4.1) % | 1.9 (±0.3) fold
4 | Tocofersolan [LX-3001] | 73 | 261 | 2.4 (±0.1) mm | 6.1 (±0.6) s | 223 (±15.7) μm | – | – | – | 34.1 (±2.1) μm | 80 (±2.5) % | 58.7 | – | – | –

Reference: patent US20260306460A1, “COMPOSITION FOR REMOVING AND INHIBITING SENESCENT CELLS, AND USES THEREOF” (LIFECEUTIX CO., LTD., priority 2023, published 2026)
